{"source": "patent US20250262222A1", "about": "“HETEROCYCLIC COMPOUNDS, COMPOSITIONS THEREOF, AND METHODS OF TREATMENT THEREWITH” (BeiGene Switzerland GmbH, priority 2022, published 2025)", "data": [{"system": "pERK1/2(THR202/TYR204) level in AsPC-1 cell line", "assay": "KRAS G12D pERK assay", "assay_type": "cell-based", "settings": "AsPC-1 cells, 2 h compound treatment, HTRF", "description": "(§1) AsPC-1 cell line was used in this study. Cells were maintained in RPMI-1640 supplemented with 10% fetal bovine serum (Thermo Fisher), 50 units/mL penicillin and streptomycin (Thermo Fisher) and kept at 37° C. in a humidified atmosphere of 5% CO2 in air. Cells were reinstated from frozen stocks that were laid down within 30 passages from the original cells purchased. 30000 cells per well were seeded into a 96-well plate and incubated overnight. Cells were treated with a 10-point dilution series. The final compound concentration is from 0 to 10 μM. After 2 h compound treatment, cells were lysed, and the pERK1/2(THR202/TYR204) level in the cell lysates was detected by HTRF kit (Cisbio). In brief, a total of 16 μL of cell lysate from each well of a 96-well plate was transferred to a 384-well white assay plate. Lysate from each well was incubated with 2 μL of Eu3+-cryptate (donor) labeled anti-phospho-ERK1/2 and 2 μL of D2 (acceptor) labeled anti-phospho-ERK1/2 antibodies (Cisbio) overnight in dark at room temperature. When donor and acceptor are in close proximity, excitation of the donor with laser triggers a Fluorescence Resonance Energy Transfer (FRET) towards the acceptor, which in turn fluoresces at 655 nm wavelength. FRET signals were measured using a PHERAstar FSX reader (BMG Labtech). IC50 determination was performed by fitting the curve of percent inhibition versus the log of the inhibitor concentration using Dotmatics.", "units": {"IC50": "µM"}, "values": [{"smiles": "Nc1cc(Cl)c(C(F)(F)F)c(-c2nc3c4c(nc(OC[C@@]56CCCN5C[C@H](F)C6)nc4c2F)N2C[C@H]4CC[C@H](N4)C2CCO3)c1", "note": "(single isomer, unassigned) [Example 25]", "IC50": 0.504}]}, {"system": "pERK1/2(THR202/TYR204) level in AsPC-1 cell line", "assay": "KRAS G12D pERK assay", "assay_type": "cell-based", "settings": "Homo sapiens, ASPC1, 2 h, AsPC-1 cells, 2 h compound treatment, HTRF", "description": "as §1", "units": {"IC50": "µM"}, "values": [{"smiles": "Nc1cc(Cl)c(C(F)(F)F)c(-c2nc3c4c(nc(OCC56COC(CF)(C5)C6)nc4c2F)N2C[C@H]4CC[C@H](N4)[C@H]2CCO3)c1", "note": "[Example 50, 3-chloro-5-((6aR,7S,10R)-1-fluoro-13-((1-(fluoromethyl)-2-oxabicyclo[2.1.1]hexan-4-yl)methoxy)-5,6,6a,7,8,9,10,11-octahydro-4-oxa-3,11a,12,14,15-pentaaza-7,10-methanocyclohepta[4,5]cyclo-octa[1,2,3-de]naphthalen-2-yl)-4-(trifluoromethyl)aniline]", "IC50": 0.109}, {"smiles": "Nc1cc(Cl)c(C(F)(F)F)c(-c2nc3c4c(nc(OC[C@@]56CCCN5C[C@H](F)C6)nc4c2F)N2C[C@H]4CC[C@H](N4)[C@H]2CO3)c1", "note": "[Example 17, 3-chloro-5-((5aS,6S,9R)-1-fluoro-12-(((2R,7aS)-2-fluorotetrahydro-1H-pyrrolizin-7a(5H)-yl)methoxy)-5a,6,7,8,9,10-hexahydro-5H-4-oxa-3,10a,11,13,14-pentaaza-6,9-methanonaphtho[1,8-ab]heptalen-2-yl)-4-(trifluoromethyl)aniline]", "IC50": 0.011}, {"smiles": "CCOC(=O)N1CC(C)(COc2nc3c4c(nc(-c5cc(N)cc(Cl)c5C(F)(F)F)c(F)c4n2)OCC[C@@H]2[C@@H]4CC[C@H](CN32)N4)C1", "note": "[Example 33, ethyl 3-((((6aR,7S,10R)-2-(5-amino-3-chloro-2-(trifluoromethyl)phenyl)-1-fluoro-5,6,6a,7,8,9,10,11-octahydro-4-oxa-3,11a,12,14,15-pentaaza-7,10-methanocyclohepta[4,5]cyclo-octa[1,2,3-de]naphthalen-13-yl)oxy)methyl)-3-methylazetidine-1-carboxylate]", "IC50": 0.286}, {"smiles": "Cc1c(F)c(N)cc(-c2nc3c4c(nc(OCC5(C(F)F)COC5)nc4c2F)N2C[C@H]4CC[C@H](N4)[C@H]2CCO3)c1C(F)(F)F", "note": "[Example 31, 5-((6aR,7S,10R)-13-((3-(difluoromethyl)oxetan-3-yl)methoxy)-1-fluoro-5,6,6a,7,8,9,10,11-octahydro-4-oxa-3,11a,12,14,15-pentaaza-7,10-methanocyclohepta[4,5]cyclo-octa[1,2,3-de]naphthalen-2-yl)-2-fluoro-3-methyl-4-(trifluoromethyl)aniline]", "IC50": 0.162}, {"smiles": "CC1(COc2nc3c4c(nc(-c5cc(N)cc(Cl)c5C(F)(F)F)c(F)c4n2)OCC[C@@H]2[C@@H]4CC[C@H](CN32)N4)COC1", "note": "[Example 66, 3-chloro-5-((6aR,7S,10R)-1-fluoro-13-((3-methyloxetan-3-yl)methoxy)-5,6,6a,7,8,9,10,11-octahydro-4-oxa-3,11a,12,14,15-pentaaza-7,10-methanocyclohepta[4,5]cyclo-octa[1,2,3-de]naphthalen-2-yl)-4-(trifluoromethyl)aniline]", "IC50": 0.145}, {"smiles": "COC1(COc2nc3c4c(nc(-c5cc(N)cc(Cl)c5C(F)(F)F)c(F)c4n2)OCC[C@@H]2[C@@H]4CC[C@H](CN32)N4)COC1", "note": "[Example 61, 3-chloro-5-((6aR,7S,10R)-1-fluoro-13-((3-methoxyoxetan-3-yl)methoxy)-5,6,6a,7,8,9,10,11-octahydro-4-oxa-3,11a,12,14,15-pentaaza-7,10-methanocyclohepta[4,5]cyclo-octa[1,2,3-de]naphthalen-2-yl)-4-(trifluoromethyl)aniline]", "IC50": 0.332}, {"smiles": "Cc1cc(N)cc(-c2nc3c4c(nc(OCC56CCC(C)(C5)OC6)nc4c2F)N2C[C@H]4CC[C@H](N4)[C@H]2CCO3)c1C(F)(F)F", "note": "[Example 51, 3-((6aR,7S,10R)-1-fluoro-13-((1-methyl-2-oxabicyclo[2.2.1]heptan-4-yl)methoxy)-5,6,6a,7,8,9,10,11-octahydro-4-oxa-3,11a,12,14,15-pentaaza-7,10-methanocyclohepta[4,5]cyclo-octa[1,2,3-de]naphthalen-2-yl)-5-methyl-4-(trifluoromethyl)aniline]", "IC50": 0.272}, {"smiles": "Nc1cc(Cl)c(C(F)(F)F)c(-c2nc3c4c(nc(OC[C@@]56CCCN5C[C@H](F)C6)nc4c2F)N2CC4CCC(N4)C2CO3)c1", "note": "(stereo partly drawn) [Example 10, 3-chloro-5-(1-fluoro-12-(((2R,7aS)-2-fluorotetrahydro-1H-pyrrolizin-7a(5H)-yl)methoxy)-5a,6,7,8,9,10-hexahydro-5H-4-oxa-3,10a,11,13,14-pentaaza-6,9-methanonaphtho[1,8-ab]heptalen-2-yl)-4-(trifluoromethyl)aniline]", "IC50": 0.058}, {"smiles": "CC12CC(COc3nc4c5c(nc(-c6cc(N)cc(Cl)c6C(F)(F)F)c(F)c5n3)OCC[C@@H]3[C@@H]5CC[C@H](CN43)N5)(CO1)C2", "note": "[Example 34, 3-chloro-5-((6aR,7S,10R)-1-fluoro-13-((1-methyl-2-oxabicyclo[2.1.1]hexan-4-yl)methoxy)-5,6,6a,7,8,9,10,11-octahydro-4-oxa-3,11a,12,14,15-pentaaza-7,10-methanocyclohepta[4,5]cyclo-octa[1,2,3-de]naphthalen-2-yl)-4-(trifluoromethyl)aniline]", "IC50": 0.082}, {"smiles": "CC12COCC(COc3nc4c5c(nc(-c6cc(N)cc(Cl)c6C(F)(F)F)c(F)c5n3)OCC[C@@H]3[C@@H]5CC[C@H](CN43)N5)(C1)C2", "note": "[Example 48, 3-chloro-5-((6aR,7S,10R)-1-fluoro-13-((5-methyl-3-oxabicyclo[3.1.1]heptan-1-yl)methoxy)-5,6,6a,7,8,9,10,11-octahydro-4-oxa-3,11a,12,14,15-pentaaza-7,10-methanocyclohepta[4,5]cyclo-octa[1,2,3-de]naphthalen-2-yl)-4-(trifluoromethyl)aniline]", "IC50": 0.296}, {"smiles": "Cc1cc(N)cc(-c2nc3c4c(nc(OCC56COCC(F)(C5)C6)nc4c2F)N2C[C@H]4CC[C@H](N4)[C@H]2CCO3)c1C(F)(F)F", "note": "[Example 30, 3-((6aR,7S,10R)-1-fluoro-13-((5-fluoro-3-oxabicyclo[3.1.1]heptan-1-yl)methoxy)-5,6,6a,7,8,9,10,11-octahydro-4-oxa-3,11a,12,14,15-pentaaza-7,10-methanocyclohepta[4,5]cyclo-octa[1,2,3-de]naphthalen-2-yl)-5-methyl-4-(trifluoromethyl)aniline]", "IC50": 0.198}, {"smiles": "CC12CCC(COc3nc4c5c(nc(-c6cc(N)cc(Cl)c6C(F)(F)F)c(F)c5n3)OCC[C@@H]3[C@@H]5CC[C@H](CN43)N5)(CO1)C2", "note": "[Example 36, 3-chloro-5-((6aR,7S,10R)-1-fluoro-13-((1-methyl-2-oxabicyclo[2.2.1]heptan-4-yl)methoxy)-5,6,6a,7,8,9,10,11-octahydro-4-oxa-3,11a,12,14,15-pentaaza-7,10-methanocyclohepta[4,5]cyclo-octa[1,2,3-de]naphthalen-2-yl)-4-(trifluoromethyl)aniline]", "IC50": 0.106}, {"smiles": "CN1C(=O)OC2CC1(COc1nc3c4c(nc(-c5cc(N)cc(Cl)c5C(F)(F)F)c(F)c4n1)OCC[C@@H]1[C@@H]4CC[C@H](CN31)N4)C2", "note": "[Example 46, 5-((((6aR,7S,10R)-2-(5-amino-3-chloro-2-(trifluoromethyl)phenyl)-1-fluoro-5,6,6a,7,8,9,10,11-octahydro-4-oxa-3,11a,12,14,15-pentaaza-7,10-methanocyclohepta[4,5]cyclo-octa[1,2,3-de]naphthalen-13-yl)oxy)methyl)-4-methyl-2-oxa-4-azabicyclo[3.1.1]heptan-3-one]", "IC50": 4.86}]}]}
